According to patent US9987371B2 (priority 2013, dated 2018):
“Also recorded” adds a separate entry of the source. Like-named read-outs stand apart in the source and are kept apart here.

How the values were obtained:
GFP in B16 GFP cells [1] = format: cell-based; conditions: for Able to transfect?: GFP knockdown at 50 nM; for outcome of screening for GFP siRNA delivery: peptide:polynucleotide ratio between 50:1 and 200:1
B16 GFP cells = test: Alamar Blue cell viability of transfected B16 GFP cells; format: cell-based
Protocol: Cell viability was determined 72 hours post transfection using Alamar Blue (Life technologies). Briefly, Alamar Blue was diluted 1:10 into phenol red free medium and incubated with cells for 2-4 hours. Fluorescence was measured on a fluorescent plate reader with excitation at 570 nm and emission at 585 nm (Varian Cary Eclipse, Agilent Technologies, Santa Clara, Calif.).
B16 GFP cells were transfected with increasing concentrations of p5RHH/siRNA nanoparticles containing GFP-specific or scrambled siRNA. For comparison, B16 GFP cells were also transfected with increasing concentrations of GFP specific or scrambled siRNA using lipofectamine 2000. RNA extracted from transfected cells was analyzed using Northern blot analysis, and normalized viability of transfected B16 cells was determined (FIG. 28).

[2] = system: Rabbit red blood cells (RBC); test: RBC hemolysis; format: cell-based
Protocol: The lytic capacity of liberated p5RHH can be quantified in vitro with red blood cell (RBC) hemolysis assays. When incubated at decreasing pH, the ability of p5RHH/siRNA nanoparticles to lyse RBC is enhanced, due to the release of free p5RHH at pH ≤5.5 (FIG. 210). These assays were performed at 4° C. to decrease the rate of auto-hemolysis observed at higher temperatures.
Rabbit red blood cells (RBC) were isolated from whole blood by centrifugation and washed in PBS 3× before storage at 4° C. Prior to hemolysis studies, RBC were washed 3× in pH appropriate HBSS and diluted 1 to 5000. RBCs in pH-specific buffer were then incubated with p5RHH/siRNA nanoparticles for 12 hours. The RBC remnants were pelleted by centrifugation and the hemoglobin content of the supernatant was measured by UV absorbance at 550 nm. Absorbance values were then normalized against maximum lysis by p5RHH only controls and presented as the average of 3 separate experiments.

B16-F10 cells [3] = system: B16-F10 cells
[4] = all tested doses, Hou et al., 2013; cited from earlier work
B16-F10 cells [5] = format: cell-based
GFP in B16 GFP cells [6] = format: cell-based
B16F10 cells [7] = test: Confocal microscopy of cytoplasmic oligonucleotide release in B16 cells; format: cell-based
B16F10 cells [8] = test: Acridine orange staining for endosomal/lysosomal disruption; format: cell-based; conditions: 100 nM siRNA, 12 hours
Protocol: Endosomal disruption in living cells was observed by acridine orange staining. Cells were first loaded with acridine orange (10 μM, 15 minutes), which fluoresces red at low pH in the endosome but green at cytoplasmic pH. Endosomal disruption can be visualized by an increase in cytoplasmic green fluorescence in the presence of 100 μM chloroquine (FIG. 21F).
B16F10 cells plated on coverslips are loaded with acridine orange at 10 μM for 15 minutes and washed for 3× in PBS before incubation in the presence of p5RHH/siRNA nanoparticles in 10% DMEM at a final siRNA concentration of 100 nM for 12 hours. Alternatively, cells were exposed to chloroquine (Sigma) at 100 μM for 15 minutes prior to imaging. Live cells were visualized by fluorescence microscopy on an Olympus BX610 (Tokyo, Japan).

[9] = charge ratio (+/−) 6:1 (peptide/siRNA 62:1, 28:1 or 50:1 by peptide)
[10] = charge ratio (+/−) 12:1 (peptide/siRNA 124:1, 56:1 or 100:1 by peptide)
[11] = charge ratio (+/−) 24:1 (peptide/siRNA 248:1, 112:1 or 200:1 by peptide)

**Q.** Which “Able to transfect?” value (GFP in B16 GFP cells [1]; [9]) does the source give for CC[C@H](C)[C@H](NC(=O)CN)C(=O)NCC(=O)N[C@@H](C)C(=O)N[C@H](C(=O)N[C@@H](CC(C)C)C(=O)N[C@@H](CCCCN)C(=O)N[C@H](C(=O)N[C@@H](CC(C)C)C(=O)N[C@H](C(=O)N[C@H](C(=O)NCC(=O)N[C@@H](CC(C)C)C(=O)N1CCC[C@H]1C(=O)N[C@@H](C)C(=O)N[C@@H](CC(C)C)C(=O)N[C@H](C(=O)N[C@@H](CO)C(=O)N[C@@H](Cc1c[nH]c2ccccc12)C(=O)N[C@H](C(=O)N[C@@H](CCCCN)C(=O)N[C@@H](CCCNC(=N)N)C(=O)N[C@@H](CCCCN)C(=O)N[C@@H](CCCNC(=N)N)C(=O)N[C@@H](CCC(N)=O)C(=O)N[C@@H](CCC(N)=O)C(N)=O)[C@@H](C)CC)[C@@H](C)CC)[C@@H](C)O)[C@@H](C)O)C(C)C)C(C)C [Melittin, reference compound] here?
**A.** No

**Q.** What about the “Able to transfect?” value (GFP in B16 GFP cells [1]; [10]) of the same molecule?
**A.** Toxic

**Q.** And the “Able to transfect?” value (GFP in B16 GFP cells [1]; [11])?
**A.** Toxic

**Q.** What about the “outcome of screening for GFP siRNA delivery” value (GFP in B16 GFP cells [1]) of the same molecule?
**A.** too toxic

**Q.** What does the source list for CC[C@H](C)[C@H](NC(=O)[C@H](CC(C)C)NC(=O)[C@H](C)NC(=O)[C@@H]1CCCN1C(=O)[C@H](CC(C)C)NC(=O)CNC(=O)[C@@H](NC(=O)[C@@H](NC(=O)[C@H](CC(C)C)NC(=O)[C@@H](N)C(C)C)[C@@H](C)O)[C@@H](C)O)C(=O)N[C@@H](CO)C(=O)N[C@@H](Cc1c[nH]c2ccccc12)C(=O)N[C@H](C(=O)N[C@@H](CCCNC(=N)N)C(=O)N[C@@H](CCCNC(=N)N)C(=O)N[C@@H](CCCNC(=N)N)C(=O)N[C@@H](Cc1c[nH]cn1)C(=O)N[C@@H](CCCNC(=N)N)C(=O)N[C@@H](CCCNC(=N)N)C(=O)N[C@@H](Cc1c[nH]cn1)C(=O)N[C@@H](CS)C(=O)O)[C@@H](C)CC [p5RHH]?
**A.** cytotoxicity at p5RHH:siRNA ratios up to 200:1 (B16 GFP cells; Alamar blue, 50 nM siRNA): no sign of cytotoxicity; decrease in cell viability (B16 GFP cells; highest concentrations tested): ~3%; toxicity by Alamar blue (B16 GFP cells; siRNA concentrations up to 200 nM): minimal toxicity; IC50 ([2]; free peptide, normalized to 0.1% Triton-X, read-out: IC50 of RBC lysis): 200 to 400 µM; pH at which hemolysis / hemoglobin release is increased ([2]; p5RHH/siRNA nanoparticles, 4° C.): ≤ 5.5; nonspecific cytotoxicity (B16 viability) (B16-F10 cells [3]): no effect on B16 viability; decreased B16-F10 viability (B16-F10 cells [3]; mouse): 60%; cytotoxicity towards HUVEC cells (HUVEC cells): no cytotoxicity; cytotoxicity in RAW264.7 cells (RAW264.7 cells): without cytotoxicity; decrease in cell viability (RAW264.7 cells): ~5%; cytotoxicity [4]: without significant cytotoxicity

**Q.** Which results are given for CO/C1=C\C(C)=C\[C@@H](C)[C@@H](O)[C@@H](C)C/C(C)=C/C=C/[C@H](OC)[C@@H]([C@@H](C)[C@@H](O)[C@H](C)[C@@]2(O)C[C@@H](O)[C@H](C)[C@@H](C(C)C)O2)OC1=O [bafilomycin A1, reference compound]?
**A.** effect of bafilomycin A1 on p5RHH mediated GFP knockdown (GFP in B16 GFP cells [1]): near complete loss of GFP knockdown; also recorded: blocks knockdown of GFP; effect of bafilomycin A1 on p5RHH/siRNA uptake (B16-F10 cells [5]): did not impair p5RHH/siRNA uptake; also recorded: does not inhibit uptake

**Q.** Which “Able to transfect?” value (GFP in B16 GFP cells [1]; [9]) does the source give for VLTTGLPALISWIKRKRQQRWRRRR [p5RWR] here?
**A.** No

**Q.** What about the “Able to transfect?” value (GFP in B16 GFP cells [1]; [10]) of the same molecule?
**A.** No

**Q.** What about the “Able to transfect?” value (GFP in B16 GFP cells [1]; [11]) of the same molecule?
**A.** No

**Q.** And the “siRNA transfection ability (GFP knockdown)” value (GFP in B16 GFP cells [1]; flow cytometry, without / with 50 μM chloroquine)?
**A.** unable to initiate GFP knockdown without the aid of chloroquine; also recorded: no siRNA transfection ability

**Q.** What about the “GFP knockdown by western blotting” value (GFP in B16 GFP cells [6]) of the same molecule?
**A.** unable to induce GFP knockdown even in the presence of chloroquine

**Q.** And the “oligonucleotide release into the cytoplasm” value (B16F10 cells [7])?
**A.** do not reach the cytoplasm; also recorded: does not manifest appreciable oligonucleotide release into the cytoplasm

**Q.** What about the “endosomal disruption (acridine orange release)” value (B16F10 cells [8]) of the same molecule?
**A.** cannot

**Q.** For CCN(c1nc(N)c(C(=O)NC(=N)N)nc1Cl)C(C)C [EIPA], which “effect of endocytosis inhibitor on p5RHH/siRNA nanoparticle uptake” value (B16-F10 cells [5]) is on record?
**A.** dramatically reduces p5RHH/siRNA uptake; also recorded: nearly abolishes nanoparticle uptake

**Q.** For VLTTGLPALISWIRRRHRRC [p5RH], which “Able to transfect?” value (GFP in B16 GFP cells [1]; [9]) is on record?
**A.** No

**Q.** And the “Able to transfect?” value (GFP in B16 GFP cells [1]; [10])?
**A.** Yes

**Q.** And the “Able to transfect?” value (GFP in B16 GFP cells [1]; [11])?
**A.** No

**Q.** And the “outcome of screening for GFP siRNA delivery” value (GFP in B16 GFP cells [1])?
**A.** able to transfect

**Q.** Which “effect of chloroquine on p5RHH mediated GFP knockdown” value (GFP in B16 GFP cells [6]) does the source give for CCN(CC)CCCC(C)Nc1ccnc2cc(Cl)ccc12 (centres unmarked) [chloroquine, reference compound] here?
**A.** does not improve knockdown

**Q.** With CCCCC[C@@H](O)[C@H]1C(=O)O[C@H](C)[C@@H](O)/C=C/C=C/C=C/C=C/C=C(\C)[C@@H](O)C[C@H](O)C[C@H](O)C[C@H](O)C[C@H](O)C[C@H](O)C[C@@H]1O [filipin] as the molecule, how does the “effect of endocytosis inhibitor on p5RHH/siRNA nanoparticle uptake” value (B16-F10 cells [5]) read?
**A.** no effect; also recorded: do not inhibit

**Q.** What does the source list for VLKVLTTLAPALISWIRRRHRRC [p5RH-LL]?
**A.** Able to transfect? (GFP in B16 GFP cells [1]; [9]): No; Able to transfect? (GFP in B16 GFP cells [1]; [10]): Yes; Able to transfect? (GFP in B16 GFP cells [1]; [11]): No; outcome of screening for GFP siRNA delivery (GFP in B16 GFP cells [1]): able to transfect

**Q.** For VLTTGLPALISWIKRKRQQC [Peptide 5C], which “Able to transfect?” value (GFP in B16 GFP cells [1]; [9]) is on record?
**A.** No

**Q.** What about the “Able to transfect?” value (GFP in B16 GFP cells [1]; [10]) of the same molecule?
**A.** No

**Q.** What about the “Able to transfect?” value (GFP in B16 GFP cells [1]; [11]) of the same molecule?
**A.** No
